The target of data set [1] is Platelet-derived growth factor receptor beta (Homo sapiens, UniProt P09619). The experiment in a line: Inhibition of PDGFR-beta (unknown origin) incubated for 90 mins in presence of ATP by HTRF assay. For orientation: Time-resolved FRET reads energy transfer from a long-lived donor to a nearby acceptor.
The next data set deals with Aurora kinase B (Homo sapiens, UniProt Q96GD4). The experiment in a line: Inhibition of AURKB (unknown origin) incubated for 90 mins in presence of ATP by HTRF assay.
The target of data set [2] is Mast/stem cell growth factor receptor Kit (Homo sapiens, UniProt P10721). The experiment in a line: Inhibition of c-KIT (unknown origin) incubated for 90 mins in presence of ATP by HTRF assay.
For data set [3], the target named is High affinity nerve growth factor receptor (Homo sapiens, UniProt P04629). Kind of data set: Inhibition of TRKA (unknown origin) incubated for 90 mins in presence of ATP by HTRF assay.
For data set [4], the target named is Vascular endothelial growth factor receptor 2 (Homo sapiens, UniProt P35968). The experiment in a line: Inhibition of VEGFR2 (unknown origin) incubated for 90 mins in presence of ATP by HTRF assay.
Data set [5] is described as follows: Inhibition of phosphorylated FGFR2alpha in human KATO III stomach cancer cell line spiked in human whole blood incubated for 4 hrs by ELISA. It counts as tissue-based. In general terms: In an ELISA, binding on a coated surface is turned into a signal by an enzyme label.
The nature of data set [6]: Half life in Sprague-Dawley rat at 2 mg/kg, po or 1 mg/kg, iv administered as cassette dose measured after 24 hrs. Type of data set: ADME, organism-based. The settings on record: in vivo.
Data set [7] can be described thus: Volume of distribution at steady state in cynomolgus monkey at 2 mg/kg, po or 0.5 mg/kg, iv administered as cassette dose measured after 24 hrs. It counts as ADME, organism-based, Macaca fascicularis. The following applies: in vivo, read-out: Vdss.
A short description of data set [8]: Oral bioavailability in Sprague-Dawley rat at 2 mg/kg administered as cassette dose measured after 24 hrs. The settings on record: in vivo. Type of data set: ADME, organism-based.
Data set [9] is described as follows: Clearance in Sprague-Dawley rat at 2 mg/kg, po or 1 mg/kg, iv administered as cassette dose measured after 24 hrs relative to hepatic blood flow. The following applies: in vivo. It counts as ADME, organism-based.
Data set [10] in a line: Half life in cynomolgus monkey at 2 mg/kg, po or 0.5 mg/kg, iv administered as cassette dose measured after 24 hrs. Type of data set: ADME, organism-based, Macaca fascicularis. The settings on record: in vivo.
A short description of data set [11]: Clearance in cynomolgus monkey at 2 mg/kg, po or 0.5 mg/kg, iv administered as cassette dose measured after 24 hrs relative to hepatic blood flow. It counts as ADME, organism-based, Macaca fascicularis. The following applies: in vivo.
A short description of data set [12]: Volume of distribution at steady state in Sprague-Dawley rat at 2 mg/kg, po or 1 mg/kg, iv administered as cassette dose measured after 24 hrs. It counts as ADME, organism-based. The settings on record: in vivo, read-out: Vdss.
In data set [13] the target is T1, CYP3A4 (Homo sapiens, UniProt P08684). Kind of data set: Time dependent inhibition of CYP3A4 in human liver microsomes at 10 uM using midazolam as substrate substrate preincubated for 30 mins in presence of NADPH followed by substrate addition and measured after 8 mins relative to control. It counts as ADME. The following applies: probe midazolam, time 38 min, read-out: TDI. Background: Liver microsomes are a subcellular fraction often used to study metabolism.

Data set [14] in a line: AUC in cynomolgus monkey at 2 mg/kg, po or 0.5 mg/kg, iv administered as cassette dose measured after 24 hrs. It counts as ADME, organism-based, Macaca fascicularis. Set-up: dose 2 mg/kg, time 24 hrs. The following applies: in vivo.
Data set [15] is described as follows: Oral bioavailability in cynomolgus monkey at 2 mg/kg administered as cassette dose measured after 24 hrs. It counts as ADME, organism-based, Macaca fascicularis. The settings on record: in vivo.
The nature of data set [16]: Solubility of the compound in FaSSIF by HPLC analysis. It counts as physicochemical.
Data set [17] is described as follows: AUC in Sprague-Dawley rat at 2 mg/kg, po or 1 mg/kg, iv administered as cassette dose measured after 24 hrs. Type of data set: ADME, organism-based. Set-up: time 24 hrs, dose 2 mg/kg. The settings on record: in vivo.
In data set [18] the target is T1, CYP3A4. Kind of data set: Time dependent inhibition of CYP3A4 in human liver microsomes at 25 uM using midazolam as substrate substrate preincubated for 30 mins in presence of NADPH followed by substrate addition and measured after 8 mins relative to control. Type of data set: ADME. The settings on record: probe midazolam, time 38 min, read-out: TDI.

Converted amounts (≈) assume the structure as drawn. Some results are limits rather than exact numbers.

By IC50 is commonly meant the concentration at which inhibition is half-maximal. A word on the half-life: it is how long it takes for the measured level to halve. For orientation: bioavailability means dose-corrected exposure relative to a reference, in per cent. Broadly, the AUC is concentration integrated over time. The term solubility denotes the concentration that dissolves in the medium under given conditions.

T1 sequence (P08684 whole entry): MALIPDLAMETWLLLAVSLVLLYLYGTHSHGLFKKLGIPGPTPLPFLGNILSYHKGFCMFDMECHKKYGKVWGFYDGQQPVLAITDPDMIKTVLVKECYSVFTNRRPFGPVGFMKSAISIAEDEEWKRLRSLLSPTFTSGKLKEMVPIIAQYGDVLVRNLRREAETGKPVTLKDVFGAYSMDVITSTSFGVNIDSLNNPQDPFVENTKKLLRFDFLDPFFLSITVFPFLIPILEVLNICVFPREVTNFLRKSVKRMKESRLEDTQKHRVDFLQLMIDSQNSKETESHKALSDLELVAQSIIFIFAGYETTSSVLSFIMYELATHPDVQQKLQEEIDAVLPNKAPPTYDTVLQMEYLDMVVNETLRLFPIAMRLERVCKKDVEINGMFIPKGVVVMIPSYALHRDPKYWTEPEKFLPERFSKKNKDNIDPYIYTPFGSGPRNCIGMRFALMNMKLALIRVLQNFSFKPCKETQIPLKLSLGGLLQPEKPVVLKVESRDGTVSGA
Vascular endothelial growth factor receptor 2, sequence (P35968 whole entry): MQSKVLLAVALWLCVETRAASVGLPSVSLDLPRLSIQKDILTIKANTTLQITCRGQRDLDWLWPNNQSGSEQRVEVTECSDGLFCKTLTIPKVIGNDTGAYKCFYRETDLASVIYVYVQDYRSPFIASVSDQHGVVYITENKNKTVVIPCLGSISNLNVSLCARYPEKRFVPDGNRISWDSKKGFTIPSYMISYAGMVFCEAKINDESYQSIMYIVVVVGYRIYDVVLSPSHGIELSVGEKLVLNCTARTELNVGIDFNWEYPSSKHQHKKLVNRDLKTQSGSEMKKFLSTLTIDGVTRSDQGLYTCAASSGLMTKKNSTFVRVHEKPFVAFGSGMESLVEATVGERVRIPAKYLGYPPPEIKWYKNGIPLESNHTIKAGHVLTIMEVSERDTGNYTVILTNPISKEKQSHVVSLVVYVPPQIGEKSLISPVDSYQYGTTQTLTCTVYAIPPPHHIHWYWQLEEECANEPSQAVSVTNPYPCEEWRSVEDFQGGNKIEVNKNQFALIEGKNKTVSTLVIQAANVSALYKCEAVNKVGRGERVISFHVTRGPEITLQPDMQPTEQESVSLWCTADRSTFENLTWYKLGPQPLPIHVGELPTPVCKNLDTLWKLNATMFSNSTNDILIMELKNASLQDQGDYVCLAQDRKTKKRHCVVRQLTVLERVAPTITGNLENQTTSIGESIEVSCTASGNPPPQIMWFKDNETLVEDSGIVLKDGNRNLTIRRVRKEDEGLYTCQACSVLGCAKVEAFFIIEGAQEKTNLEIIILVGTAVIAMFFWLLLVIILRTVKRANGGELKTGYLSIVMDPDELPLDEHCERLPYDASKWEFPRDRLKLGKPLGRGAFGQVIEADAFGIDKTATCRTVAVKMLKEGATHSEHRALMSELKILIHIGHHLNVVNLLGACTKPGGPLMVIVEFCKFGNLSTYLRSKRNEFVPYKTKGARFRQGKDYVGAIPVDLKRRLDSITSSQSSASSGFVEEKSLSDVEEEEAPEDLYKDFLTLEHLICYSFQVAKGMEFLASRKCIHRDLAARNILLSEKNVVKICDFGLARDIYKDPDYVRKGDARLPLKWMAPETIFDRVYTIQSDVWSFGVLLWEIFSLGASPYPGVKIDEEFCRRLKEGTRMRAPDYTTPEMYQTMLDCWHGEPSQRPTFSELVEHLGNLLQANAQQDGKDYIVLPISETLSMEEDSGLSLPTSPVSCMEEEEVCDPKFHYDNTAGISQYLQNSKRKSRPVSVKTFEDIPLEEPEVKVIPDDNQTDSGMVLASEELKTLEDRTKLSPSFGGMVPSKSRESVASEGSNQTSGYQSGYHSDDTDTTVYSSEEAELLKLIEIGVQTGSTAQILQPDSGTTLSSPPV
Aurora kinase B, sequence (Q96GD4 whole entry): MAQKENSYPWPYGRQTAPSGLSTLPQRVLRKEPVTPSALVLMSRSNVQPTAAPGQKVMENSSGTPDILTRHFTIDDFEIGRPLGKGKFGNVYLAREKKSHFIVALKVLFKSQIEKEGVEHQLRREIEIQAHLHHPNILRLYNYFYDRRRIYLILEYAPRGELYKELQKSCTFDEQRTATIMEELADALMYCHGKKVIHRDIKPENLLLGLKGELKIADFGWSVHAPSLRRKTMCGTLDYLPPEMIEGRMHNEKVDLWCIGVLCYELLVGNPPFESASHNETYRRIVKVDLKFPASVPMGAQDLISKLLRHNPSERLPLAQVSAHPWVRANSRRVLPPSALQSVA
Mast/stem cell growth factor receptor Kit, sequence (P10721 whole entry): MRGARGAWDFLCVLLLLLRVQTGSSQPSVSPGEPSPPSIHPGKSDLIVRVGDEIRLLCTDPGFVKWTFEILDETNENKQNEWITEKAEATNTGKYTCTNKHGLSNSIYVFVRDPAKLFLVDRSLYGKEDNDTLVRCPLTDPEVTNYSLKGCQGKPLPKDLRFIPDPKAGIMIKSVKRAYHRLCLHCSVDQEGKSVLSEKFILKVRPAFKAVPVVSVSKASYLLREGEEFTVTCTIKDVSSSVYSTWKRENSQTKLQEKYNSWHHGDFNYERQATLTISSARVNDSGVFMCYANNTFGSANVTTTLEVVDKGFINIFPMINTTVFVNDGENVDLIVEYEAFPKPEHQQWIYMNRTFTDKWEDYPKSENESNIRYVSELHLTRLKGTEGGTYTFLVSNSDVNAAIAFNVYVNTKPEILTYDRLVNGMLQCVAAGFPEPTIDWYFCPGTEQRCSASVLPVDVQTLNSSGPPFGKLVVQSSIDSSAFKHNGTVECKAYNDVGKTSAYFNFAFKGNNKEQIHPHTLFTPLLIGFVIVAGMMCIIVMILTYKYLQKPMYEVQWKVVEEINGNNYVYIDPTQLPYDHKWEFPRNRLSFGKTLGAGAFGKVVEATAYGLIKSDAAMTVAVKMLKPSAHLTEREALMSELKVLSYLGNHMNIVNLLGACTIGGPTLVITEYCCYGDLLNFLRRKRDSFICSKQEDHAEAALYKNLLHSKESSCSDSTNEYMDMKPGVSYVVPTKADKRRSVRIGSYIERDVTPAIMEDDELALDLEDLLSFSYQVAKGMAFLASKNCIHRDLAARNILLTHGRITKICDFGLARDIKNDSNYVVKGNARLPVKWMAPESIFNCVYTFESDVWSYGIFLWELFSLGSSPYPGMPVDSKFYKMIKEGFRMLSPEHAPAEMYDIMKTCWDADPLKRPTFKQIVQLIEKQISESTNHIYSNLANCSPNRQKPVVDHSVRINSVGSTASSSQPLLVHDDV
Platelet-derived growth factor receptor beta, sequence (P09619 whole entry): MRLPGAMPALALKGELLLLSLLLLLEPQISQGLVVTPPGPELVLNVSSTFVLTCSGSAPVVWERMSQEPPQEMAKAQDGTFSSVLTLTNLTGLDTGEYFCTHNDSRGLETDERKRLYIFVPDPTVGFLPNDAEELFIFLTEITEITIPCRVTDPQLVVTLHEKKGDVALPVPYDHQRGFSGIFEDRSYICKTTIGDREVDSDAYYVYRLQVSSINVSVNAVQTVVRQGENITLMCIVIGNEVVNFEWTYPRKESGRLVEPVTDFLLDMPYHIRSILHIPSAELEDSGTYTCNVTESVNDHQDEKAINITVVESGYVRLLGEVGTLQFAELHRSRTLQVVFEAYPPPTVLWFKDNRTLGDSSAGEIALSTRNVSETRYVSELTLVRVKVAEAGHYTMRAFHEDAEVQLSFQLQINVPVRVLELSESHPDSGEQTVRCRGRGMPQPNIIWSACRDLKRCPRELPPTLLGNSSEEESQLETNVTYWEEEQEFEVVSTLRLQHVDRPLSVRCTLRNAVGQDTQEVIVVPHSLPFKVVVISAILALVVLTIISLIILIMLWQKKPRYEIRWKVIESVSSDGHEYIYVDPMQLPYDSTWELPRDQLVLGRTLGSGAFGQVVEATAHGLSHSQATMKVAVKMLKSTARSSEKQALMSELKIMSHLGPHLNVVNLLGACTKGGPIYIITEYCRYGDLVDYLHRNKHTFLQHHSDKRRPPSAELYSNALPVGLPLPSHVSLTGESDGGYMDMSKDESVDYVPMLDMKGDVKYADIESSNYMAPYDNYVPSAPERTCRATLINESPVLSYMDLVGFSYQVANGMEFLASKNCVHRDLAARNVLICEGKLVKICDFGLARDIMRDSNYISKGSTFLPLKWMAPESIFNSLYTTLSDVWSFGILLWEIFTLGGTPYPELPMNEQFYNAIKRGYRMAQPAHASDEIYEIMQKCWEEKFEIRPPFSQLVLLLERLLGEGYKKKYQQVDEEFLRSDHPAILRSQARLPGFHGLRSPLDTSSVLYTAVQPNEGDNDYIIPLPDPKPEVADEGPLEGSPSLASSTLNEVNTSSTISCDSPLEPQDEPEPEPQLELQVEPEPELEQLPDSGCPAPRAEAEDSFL
High affinity nerve growth factor receptor, sequence (P04629 whole entry): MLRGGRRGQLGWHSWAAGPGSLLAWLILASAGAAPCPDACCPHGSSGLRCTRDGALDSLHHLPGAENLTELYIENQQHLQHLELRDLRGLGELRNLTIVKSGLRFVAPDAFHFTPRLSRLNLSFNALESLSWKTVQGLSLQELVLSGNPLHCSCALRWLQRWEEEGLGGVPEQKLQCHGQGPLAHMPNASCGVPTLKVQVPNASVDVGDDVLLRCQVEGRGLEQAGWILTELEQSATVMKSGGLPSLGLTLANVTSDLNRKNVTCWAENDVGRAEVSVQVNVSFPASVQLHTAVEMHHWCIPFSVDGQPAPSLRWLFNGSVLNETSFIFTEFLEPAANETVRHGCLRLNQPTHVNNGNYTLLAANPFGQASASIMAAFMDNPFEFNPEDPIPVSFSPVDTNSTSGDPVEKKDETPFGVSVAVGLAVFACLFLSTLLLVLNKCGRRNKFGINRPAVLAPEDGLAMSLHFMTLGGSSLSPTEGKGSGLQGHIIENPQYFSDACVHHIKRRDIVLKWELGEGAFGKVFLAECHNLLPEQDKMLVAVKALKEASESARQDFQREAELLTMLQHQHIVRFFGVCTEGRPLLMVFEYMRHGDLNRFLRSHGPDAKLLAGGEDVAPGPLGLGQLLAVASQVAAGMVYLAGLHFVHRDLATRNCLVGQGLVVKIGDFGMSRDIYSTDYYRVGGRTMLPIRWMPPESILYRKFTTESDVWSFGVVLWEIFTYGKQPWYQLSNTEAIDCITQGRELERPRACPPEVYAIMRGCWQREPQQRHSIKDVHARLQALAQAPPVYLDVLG

As to `COc1cc(OC)c(F)c(N2Cc3cnc4[nH]c(-c5cnn(C)c5)cc4c3N(C)C2=O)c1F`, the IC50 was 5.7 nM in data set [1]; 2.5 nM on Aurora kinase B; 3.9 nM in data set [2]; less than 1 nM in [3]; 1.3 nM in data set [4].
In turn, `CCN1CCN(Cc2cc3c4c(cnc3[nH]2)CN(c2c(F)c(OC)cc(OC)c2F)C(=O)N4C)CC1` returned an IC50 in data set [5] of 24 nM. In addition, the values for the half-life in data set [6] and in data set [10] were 11.9 h and 12 h, respectively. In addition, the Vd in data set [7] came to 0.41 L/kg; in [12], 5.12 L/kg. Moreover, the bioavailability in data set [8] came to 49%; in data set [15] it was 26%. For the same molecule, the results for the CL in data set [9] and in data set [11] were 51% and 8%, respectively. Moreover, the inhibition at 8 min, 10 µM on CYP3A4 [13] worked out at 14%. The figures for the AUC at 24 h in data set [14] and in data set [17] were 5.87 µM·h and 1.17 µM·h, respectively. Also, the solubility in data set [16] came to 942 µg/mL (≈ 1880 µM). Also, at CYP3A4 [18], the inhibition at 8 min, 25 µM worked out at 45%.
